Measured values taken from patent US20140323414A1 (priority 2011, published 2014).

Test system: live anesthetized rats
Conditions: rat, in vivo

`CNCC(O)c1ccc(O)c(O)c1` (stereo not shown) [Adrenalin] was tested, and the rhythm disturbances was “induced rhythm disturbances”.
